# ChEMBL document CHEMBL1201862, “PubChem BioAssay data set” (2004)
#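 1) Cells in 96-well plates. 2) Compound, 48 h, 5 concentrations. 3) Linear interpolation between surrounding doses. 4) Unreached endpoint = highest concentration. GI50 is the concentration that inhibits growth by half.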 Active and inactive are the calls of the source. Rule as the data show it: active = GI50 up to about 1.1 µM and inactive = higher.
# Assays:
# Assay in all cases: DTP human tumour cell line panel, 48 h
# BT-549 = tested on: BT-549
# MDA-MB-435 = tested on: MDA-MB-435
# DLD-1 = tested on: DLD-1
# DMS-273 = tested on: DMS-273
# LXFL 529 = tested on: LXFL 529
# M19-MEL = tested on: M19-MEL
# XF498 = tested on: XF498
# DMS-114 = tested on: DMS-114
structure (smiles),measurement,setting,value
O=C(N/N=C\c1cccc(O)c1)c1ccncc1,GI50,BT-549,> 100 µM (inactive)
same,GI50,MDA-MB-435,> 100 µM (inactive)
Nc1nc(N)c2c(Cl)c(CNc3ccc(C(=O)NC(CC(=O)O)C(=O)O)cc3)ccc2n1 (configuration not stated),GI50,BT-549,< 0.01 µM (active)
same,GI50,MDA-MB-435,< 0.01 µM (active)
O=C1c2ccccc2C(=O)N1c1ccc(Cc2ccc(N3C(=O)c4ccccc4C3=O)cc2)cc1,GI50,BT-549,> 100 µM (inactive)
same,GI50,MDA-MB-435,> 100 µM (inactive)
CC(=O)c1c(-c2cccc3ccccc23)c(C#N)c(=S)n(C2OC(CO)C(O)C(O)C2O)c1C (configuration not stated),GI50,BT-549,> 100 µM (inactive)
CCC1C(=O)OCc2c1cc1n(c2=O)C(CC)c2c-1nc1ccccc1c2Cl (configuration not stated),GI50,DLD-1,35.2 µM (inactive)
same,GI50,DMS-273,7.85 µM (inactive)
same,GI50,LXFL 529,25.9 µM (inactive)
same,GI50,M19-MEL,32.4 µM (inactive)
same,GI50,XF498,24.8 µM (inactive)
c1cc2nnnn2nc1N1CCCC1,GI50,MDA-MB-435,> 100 µM (inactive)
CCOC(=O)NC1CC2CCC1(OC)C=C2C (configuration not stated),GI50,DLD-1,> 100 µM (inactive)
same,GI50,DMS-114,> 100 µM (inactive)
same,GI50,DMS-273,> 100 µM (inactive)
same,GI50,LXFL 529,> 100 µM (inactive)
same,GI50,M19-MEL,> 100 µM (inactive)
same,GI50,XF498,> 100 µM (inactive)
Cn1c(=O)c2c(nc3n2CCCC(=O)N3CCCCl)n(C)c1=O,GI50,BT-549,> 100 µM (inactive)
same,GI50,MDA-MB-435,> 100 µM (inactive)
CCOC(=O)c1cc2c(ccc3cc(C(=O)OCC)[nH]c32)[nH]1,GI50,BT-549,52.6 µM (inactive)
same,GI50,MDA-MB-435,15.3 µM (inactive)
CCOc1ccc(NC(=O)CC2SC(N)=NC2=O)cc1 (configuration not stated),GI50,DLD-1,> 100 µM (inactive)
same,GI50,DMS-114,> 100 µM (inactive)
same,GI50,LXFL 529,> 100 µM (inactive)
same,GI50,M19-MEL,> 100 µM (inactive)
same,GI50,XF498,> 100 µM (inactive)
C[N+](C)(C)C.FC(F)(F)C1(C(F)(F)F)O[SiH-]2(OC(C(F)(F)F)(C(F)(F)F)c3ccccc32)c2ccccc21,GI50,DMS-114,14.1 µM (inactive)
same,GI50,DMS-273,20.1 µM (inactive)
same,GI50,LXFL 529,12.6 µM (inactive)
same,GI50,M19-MEL,18.2 µM (inactive)
CCOc1cc(NC(C)=O)ccc1C(=O)NN1C(=O)/C(=C/c2cc(OC)c(OC)c(OC)c2)N=C1c1ccccc1,GI50,BT-549,16.3 µM (inactive)
same,GI50,MDA-MB-435,> 100 µM (inactive)
CCN(CC)C(=S)SS(=O)(=O)c1cccc(N)c1,GI50,BT-549,> 100 µM (inactive)
same,GI50,MDA-MB-435,> 100 µM (inactive)
CCNC(C)Cc1ccccc1 (configuration not stated),GI50,DLD-1,> 100 µM (inactive)
same,GI50,DMS-114,> 100 µM (inactive)
same,GI50,DMS-273,> 100 µM (inactive)
same,GI50,LXFL 529,> 100 µM (inactive)
Cc1ccc2nc(SCC(=O)N/N=C3\C(=O)Nc4ccccc43)n(-c3ccccc3)c(=O)c2c1,GI50,MDA-MB-435,16.5 µM (inactive)
NC(=O)N/N=C1/CCC(O)CC1CC(=O)O (configuration not stated),GI50,BT-549,> 100 µM (inactive)
same,GI50,MDA-MB-435,> 100 µM (inactive)
Cc1ccc(C2=Nn3c(nc4sc(-c5ccccc5)cc4c3=O)SC2)cc1,GI50,BT-549,> 100 µM (inactive)
same,GI50,MDA-MB-435,> 100 µM (inactive)
CC(C)NC(=O)OCc1c(COC(=O)NC(C)C)n(C)c2c1ccc1sccc12,GI50,BT-549,2.96 µM (inactive)
same,GI50,MDA-MB-435,13.2 µM (inactive)
COc1cc(C[C@@]2(C)[C@@H]3CCC[C@H](CO)[C@@]3(C)CC[C@@H]2C)c(Cl)c(OC)c1,GI50,BT-549,17.6 µM (inactive)
same,GI50,MDA-MB-435,13.7 µM (inactive)
N[C@@H]1C[C@H](N)c2c(Cl)sc(Cl)c21,GI50,BT-549,> 100 µM (inactive)
same,GI50,MDA-MB-435,> 100 µM (inactive)
CC(=O)OC12c3ccccc3C1CCCC21OCCCO1 (configuration not stated),GI50,DLD-1,> 100 µM (inactive)
same,GI50,DMS-114,> 100 µM (inactive)
same,GI50,DMS-273,> 100 µM (inactive)
same,GI50,LXFL 529,> 100 µM (inactive)
same,GI50,M19-MEL,> 100 µM (inactive)
C/C(=C/CO[Si](C)(C)C(C)(C)C)C(=O)N(C)c1ccccc1I,GI50,BT-549,20.8 µM (inactive)
same,GI50,MDA-MB-435,17.2 µM (inactive)
COc1cccc(/C=N/NC(=O)CN(C)C)c1O,GI50,BT-549,> 100 µM (inactive)
same,GI50,MDA-MB-435,> 100 µM (inactive)
CN/N=C(/Cc1occc(=O)c1O)C(=O)Nc1ccc(C)c(C)c1,GI50,DMS-114,> 100 µM (inactive)
same,GI50,LXFL 529,> 100 µM (inactive)
same,GI50,M19-MEL,> 100 µM (inactive)
COC(=O)CC1CN(C(=O)OCc2ccccc2)C(C)(C)O1 (configuration not stated),GI50,BT-549,4.97 µM (inactive)
same,GI50,MDA-MB-435,> 100 µM (inactive)
CN(Cc1ccccc1)C(=NC#N)N(C)Cc1ccccc1,GI50,DLD-1,> 100 µM (inactive)
same,GI50,DMS-273,> 100 µM (inactive)
same,GI50,LXFL 529,> 100 µM (inactive)
same,GI50,M19-MEL,> 100 µM (inactive)
CN(C)CCNc1c2ccccc2c2c3c(cccc13)C(=O)N(CCN(C)C)C2=O,GI50,DLD-1,0.0578 µM (active)
same,GI50,DMS-273,0.122 µM (active)
same,GI50,XF498,0.267 µM (active)
COc1cc2c3c(c4cc(OC)c(OC)cc4c2cc1OC)C(=O)C1CCC(=O)N1C3 (configuration not stated),GI50,BT-549,14.8 µM (inactive)
same,GI50,MDA-MB-435,21.9 µM (inactive)
CC(=O)NCCC1CN(C(=O)/C=C\C#C[Si](C)(C)C)c2ccccc21 (configuration not stated),GI50,BT-549,21 µM (inactive)
same,GI50,MDA-MB-435,21.2 µM (inactive)
O=c1[nH]c2ccsc2c(=O)n1COCc1ccccc1,GI50,BT-549,> 100 µM (inactive)
same,GI50,MDA-MB-435,> 100 µM (inactive)
CC1NC(=O)CC(c2ccccc2)N(N=O)C1c1ccccc1 (configuration not stated),GI50,DLD-1,44.8 µM (inactive)
same,GI50,DMS-273,26 µM (inactive)
same,GI50,M19-MEL,55.7 µM (inactive)
same,GI50,XF498,25.8 µM (inactive)
O=C1NC(=O)C2C(=O)NC(=O)C1C2(c1ccccc1)c1ccc(Cl)cc1 (configuration not stated),GI50,DLD-1,> 100 µM (inactive)
same,GI50,DMS-273,> 100 µM (inactive)
same,GI50,LXFL 529,> 100 µM (inactive)
same,GI50,M19-MEL,> 100 µM (inactive)
same,GI50,XF498,> 100 µM (inactive)
